The record followed here is ChEMBL document CHEMBL5331134, “Identification of Brain-Penetrant ATP-Competitive mTOR Inhibitors for CNS Syndromes” (J Med Chem, 2023).

For series [1], the target named is T1, Serine/threonine-protein kinase mTOR (Mus musculus, UniProt Q9JLN9). Kind of series: Inhibition of mTOR in TSC1 knockout mouse MEF cells assessed as reduction in phosphorylated S6 level at serine 240/244 residues incubated for 2 hrs by Hoechst/Alexa Fluor 647 staining based analysis. The class given is cell-based.
Series [2] has as its target 3',5'-cyclic-AMP phosphodiesterase 4D (Homo sapiens, UniProt Q08499). Briefly: Inhibition of PDE4D (unknown origin).
A short description of series [3]: Solubility of compound at pH 6.8. The class given is physicochemical. To be noted: buffer.
Series [4] in a line: Efflux ratio of apparent permeability across basolateral to apical side over apical to basolateral side in MDCK-MDR1 cells. It counts as ADME, cell-based, Canis lupus familiaris. The settings on record: dog.
Series [5] has as its target T2, Cytochrome P450 3A4 (Homo sapiens, UniProt P08684). Kind of series: Inhibition of CYP3A4 (unknown origin) assessed as Kobs. The class given is ADME.
Series [6] in a line: Apparent permeability across basolateral to apical side in MDCK-MDR1 cells. The class given is ADME, cell-based, Canis lupus familiaris. To be noted: dog.
Series [7] deals with Serine/threonine-protein kinase ATR (Homo sapiens, UniProt Q13535). Briefly: Inhibition of ATR (unknown origin)-driven CHK1 phosphorylation.
The nature of series [8]: Apparent permeability across apical to basolateral side in MDCK-MDR1 cells. It counts as ADME, cell-based, Canis lupus familiaris. The settings on record: dog.
The nature of series [9]: Phototoxicity against mouse BALB/3T3 clone A31 cells assessed as reduction in cell viability incubated for 1 hr followed by irradiated with 5 J/cm^2 of light dose measured after 24 hrs by neutral red uptake assay. The class given is toxicity, cell-based. To be noted: balb/3t3 clone a31, 1 h.
Series [10] concerns the target T2, Cytochrome P450 3A4. Kind of series: Inhibition of CYP3A4 (unknown origin). The class given is ADME.
The target in series [11] is Dual specificity tyrosine-phosphorylation-regulated kinase 1A (Homo sapiens) (UniProt Q13627). Briefly: Inhibition of DYRK1A (unknown origin) assessed as residual activity at 10 uM relative to control.
The target in series [12] is CYP2D6 (Homo sapiens, UniProt P10635). Kind of series: Inhibition of CYP2D6 (unknown origin). The class given is ADME.
Series [13] concerns the target 1-phosphatidylinositol 3-phosphate 5-kinase (Homo sapiens) (UniProt Q9Y2I7). Briefly: Inhibition of PIKfyve in human U2OS cells coexpressing GFP-tagged FoxO3alpha assessed as residual activity at 10 uM incubated for 2 to 24 hrs by Hoechst staining based analysis relative to control. It counts as cell-based. The settings on record: time 2-24 hrs.
Series [14] can be described thus: Metabolic stability in dog liver microsomes assessed as intrinsic clearance at 1 uM incubated for 30 mins in presence of NADPH by LC-MS/MS analysis. It counts as ADME, Canis lupus familiaris, Microsome. The settings on record: read-out: CLH.
Series [15] can be described thus: Genotoxicity in human TK6 cells assessed as micronuclei formation in presence of S9 fraction measured after 3 hrs by micronucleus test. It counts as toxicity, subcellular. The settings on record: s9, 3 h.
A short description of series [16]: Metabolic stability in cynomolgus monkey liver microsomes assessed as intrinsic clearance at 1 uM incubated for 30 mins in presence of NADPH by LC-MS/MS analysis. It counts as ADME, Macaca fascicularis, Microsome. The settings on record: read-out: CLH.
Series [17] in a line: Metabolic stability in human liver microsomes assessed as intrinsic clearance at 1 uM incubated for 30 mins in presence of NADPH by LC-MS/MS analysis. The class given is ADME, Microsome. The settings on record: read-out: CLH.
Series [18] in a line: Genotoxicity in human TK6 cells assessed as micronuclei formation in presence of S9 fraction measured after 20 hrs by micronucleus test. The settings on record: s9, 20 h. The class given is toxicity, subcellular.
The nature of series [19]: Metabolic stability in mouse liver microsomes assessed as intrinsic clearance at 1 uM incubated for 30 mins in presence of NADPH by LC-MS/MS analysis. The settings on record: read-out: CLH. The class given is ADME, Microsome.
In series [20] the target is Myosin light chain kinase, smooth muscle (Homo sapiens) (UniProt Q15746). Kind of series: Inhibition of MYLK (unknown origin) assessed as residual activity at 10 uM relative to control.
Series [21] can be described thus: Phototoxicity against mouse BALB/3T3 clone A31 cells assessed as photo-irradiation factor incubated for 1 hr followed by irradiated with 5 J/cm^2 of light dose measured after 24 hrs by neutral red uptake assay. It counts as toxicity, cell-based. The settings on record: balb/3t3 clone a31, 1 h.
Series [22] addresses Serine/threonine-protein kinase mTOR (Homo sapiens) (UniProt P42345). Kind of series: Inhibition of mTOR (unknown origin) assessed as residual activity at 10 uM relative to control.
Series [23] is described as follows: Genotoxicity in human TK6 cells assessed as micronuclei formation by micronucleus test. It counts as toxicity, cell-based.
The nature of series [24]: Genotoxicity in human TK6 cells assessed as micronuclei formation in absence of S9 fraction measured after 3 hrs by micronucleus test. It counts as toxicity, cell-based. The settings on record: tk6, 3 h.
Series [25] in a line: Genotoxicity in human TK6 cells assessed as micronuclei formation in absence of S9 fraction measured after 20 hrs by micronucleus test. It counts as toxicity, cell-based. To be noted: tk6, 20 h.
In series [26] the target is CYP2C9 (Homo sapiens, UniProt P11712). Kind of series: Inhibition of CYP2C9 (unknown origin). The class given is ADME.
For series [27], the target named is T1, Serine/threonine-protein kinase mTOR. Kind of series: Inhibition of mTOR in Tsc1 knockout mouse neurons assessed as reduction in phosphorylated S6 level incubated for 4 hrs by Hoechst staining based immunofluorescence analysis. It counts as cell-based, Neuron.

The structures appear in SMILES notation. Converted amounts (≈) assume the structure as drawn.

Sequence of Serine/threonine-protein kinase ATR (Q13535 whole entry): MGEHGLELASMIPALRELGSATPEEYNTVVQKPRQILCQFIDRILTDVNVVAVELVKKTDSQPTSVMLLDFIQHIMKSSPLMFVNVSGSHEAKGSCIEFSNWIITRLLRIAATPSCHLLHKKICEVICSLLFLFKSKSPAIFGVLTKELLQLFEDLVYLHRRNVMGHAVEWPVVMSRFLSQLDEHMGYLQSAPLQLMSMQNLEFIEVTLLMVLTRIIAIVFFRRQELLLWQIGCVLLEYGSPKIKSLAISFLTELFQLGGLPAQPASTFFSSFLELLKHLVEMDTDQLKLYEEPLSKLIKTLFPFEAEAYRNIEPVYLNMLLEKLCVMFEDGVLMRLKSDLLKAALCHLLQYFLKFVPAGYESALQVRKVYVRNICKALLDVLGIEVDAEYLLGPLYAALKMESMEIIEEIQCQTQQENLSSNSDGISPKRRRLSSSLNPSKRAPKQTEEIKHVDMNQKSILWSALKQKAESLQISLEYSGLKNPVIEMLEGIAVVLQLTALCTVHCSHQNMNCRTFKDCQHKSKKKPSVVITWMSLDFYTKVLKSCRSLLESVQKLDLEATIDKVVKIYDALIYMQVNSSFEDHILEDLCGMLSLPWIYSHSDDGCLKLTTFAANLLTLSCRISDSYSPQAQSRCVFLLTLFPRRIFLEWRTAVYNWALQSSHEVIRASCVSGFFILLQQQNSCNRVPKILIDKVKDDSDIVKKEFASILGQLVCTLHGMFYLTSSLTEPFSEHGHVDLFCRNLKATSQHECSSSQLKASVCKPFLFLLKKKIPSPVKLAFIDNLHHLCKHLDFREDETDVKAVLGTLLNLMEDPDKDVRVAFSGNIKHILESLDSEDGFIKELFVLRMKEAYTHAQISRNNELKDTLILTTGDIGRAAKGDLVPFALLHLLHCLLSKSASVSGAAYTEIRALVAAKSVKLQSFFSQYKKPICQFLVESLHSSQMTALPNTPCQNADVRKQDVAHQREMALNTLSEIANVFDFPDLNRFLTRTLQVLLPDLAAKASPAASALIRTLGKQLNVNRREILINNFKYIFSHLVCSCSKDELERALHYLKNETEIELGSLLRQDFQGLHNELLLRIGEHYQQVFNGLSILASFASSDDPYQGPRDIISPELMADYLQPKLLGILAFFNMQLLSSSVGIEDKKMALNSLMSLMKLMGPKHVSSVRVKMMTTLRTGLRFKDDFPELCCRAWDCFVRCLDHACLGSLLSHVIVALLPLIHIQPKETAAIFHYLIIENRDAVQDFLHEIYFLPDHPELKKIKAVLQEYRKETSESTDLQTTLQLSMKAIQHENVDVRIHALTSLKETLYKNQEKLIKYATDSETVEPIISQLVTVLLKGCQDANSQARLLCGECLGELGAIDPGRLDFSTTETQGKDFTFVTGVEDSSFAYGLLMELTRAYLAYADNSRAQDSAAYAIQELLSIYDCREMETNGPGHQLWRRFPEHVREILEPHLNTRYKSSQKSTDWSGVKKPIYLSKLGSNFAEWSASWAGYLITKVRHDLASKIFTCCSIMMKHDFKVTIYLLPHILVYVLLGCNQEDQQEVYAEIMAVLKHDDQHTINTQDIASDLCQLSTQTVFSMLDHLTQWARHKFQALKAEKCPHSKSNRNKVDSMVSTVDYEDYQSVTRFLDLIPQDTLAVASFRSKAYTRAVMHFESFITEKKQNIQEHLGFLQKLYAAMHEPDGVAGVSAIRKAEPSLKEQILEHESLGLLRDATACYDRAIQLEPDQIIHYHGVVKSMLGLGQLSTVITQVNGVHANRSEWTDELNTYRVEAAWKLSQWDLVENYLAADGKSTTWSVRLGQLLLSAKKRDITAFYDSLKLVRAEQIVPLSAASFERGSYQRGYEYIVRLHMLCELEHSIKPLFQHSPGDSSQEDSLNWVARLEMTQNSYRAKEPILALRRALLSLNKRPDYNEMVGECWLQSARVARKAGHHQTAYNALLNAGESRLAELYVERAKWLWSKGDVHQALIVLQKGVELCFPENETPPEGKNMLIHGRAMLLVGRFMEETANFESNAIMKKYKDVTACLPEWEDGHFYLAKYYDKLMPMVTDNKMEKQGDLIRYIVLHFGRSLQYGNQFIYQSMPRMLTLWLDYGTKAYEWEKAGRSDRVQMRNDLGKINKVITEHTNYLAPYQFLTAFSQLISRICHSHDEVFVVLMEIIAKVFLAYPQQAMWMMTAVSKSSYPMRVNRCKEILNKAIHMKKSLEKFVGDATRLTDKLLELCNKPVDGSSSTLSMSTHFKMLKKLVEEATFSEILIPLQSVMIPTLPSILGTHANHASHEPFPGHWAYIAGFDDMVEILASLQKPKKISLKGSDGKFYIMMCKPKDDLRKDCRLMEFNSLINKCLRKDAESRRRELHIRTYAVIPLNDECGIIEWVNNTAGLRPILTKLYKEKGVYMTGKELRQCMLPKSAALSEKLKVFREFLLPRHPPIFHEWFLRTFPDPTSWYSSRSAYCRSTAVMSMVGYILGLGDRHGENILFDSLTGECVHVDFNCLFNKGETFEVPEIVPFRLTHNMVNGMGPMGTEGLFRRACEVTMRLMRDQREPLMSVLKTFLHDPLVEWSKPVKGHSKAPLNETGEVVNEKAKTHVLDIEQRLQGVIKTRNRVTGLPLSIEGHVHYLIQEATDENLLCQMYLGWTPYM
T2 sequence (P08684 whole entry): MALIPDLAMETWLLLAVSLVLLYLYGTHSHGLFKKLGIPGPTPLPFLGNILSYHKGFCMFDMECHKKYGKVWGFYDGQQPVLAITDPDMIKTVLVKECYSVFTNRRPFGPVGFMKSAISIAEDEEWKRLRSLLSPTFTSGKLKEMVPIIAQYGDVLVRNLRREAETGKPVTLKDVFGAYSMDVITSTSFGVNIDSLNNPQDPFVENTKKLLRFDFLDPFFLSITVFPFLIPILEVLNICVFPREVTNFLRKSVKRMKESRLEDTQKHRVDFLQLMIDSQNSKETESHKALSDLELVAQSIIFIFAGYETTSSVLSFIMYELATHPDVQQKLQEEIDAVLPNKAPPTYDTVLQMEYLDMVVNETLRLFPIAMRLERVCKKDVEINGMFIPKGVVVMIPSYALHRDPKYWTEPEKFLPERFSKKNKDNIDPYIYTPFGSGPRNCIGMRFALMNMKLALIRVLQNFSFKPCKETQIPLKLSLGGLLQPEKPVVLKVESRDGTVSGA
Sequence of 3',5'-cyclic-AMP phosphodiesterase 4D (Q08499 whole entry): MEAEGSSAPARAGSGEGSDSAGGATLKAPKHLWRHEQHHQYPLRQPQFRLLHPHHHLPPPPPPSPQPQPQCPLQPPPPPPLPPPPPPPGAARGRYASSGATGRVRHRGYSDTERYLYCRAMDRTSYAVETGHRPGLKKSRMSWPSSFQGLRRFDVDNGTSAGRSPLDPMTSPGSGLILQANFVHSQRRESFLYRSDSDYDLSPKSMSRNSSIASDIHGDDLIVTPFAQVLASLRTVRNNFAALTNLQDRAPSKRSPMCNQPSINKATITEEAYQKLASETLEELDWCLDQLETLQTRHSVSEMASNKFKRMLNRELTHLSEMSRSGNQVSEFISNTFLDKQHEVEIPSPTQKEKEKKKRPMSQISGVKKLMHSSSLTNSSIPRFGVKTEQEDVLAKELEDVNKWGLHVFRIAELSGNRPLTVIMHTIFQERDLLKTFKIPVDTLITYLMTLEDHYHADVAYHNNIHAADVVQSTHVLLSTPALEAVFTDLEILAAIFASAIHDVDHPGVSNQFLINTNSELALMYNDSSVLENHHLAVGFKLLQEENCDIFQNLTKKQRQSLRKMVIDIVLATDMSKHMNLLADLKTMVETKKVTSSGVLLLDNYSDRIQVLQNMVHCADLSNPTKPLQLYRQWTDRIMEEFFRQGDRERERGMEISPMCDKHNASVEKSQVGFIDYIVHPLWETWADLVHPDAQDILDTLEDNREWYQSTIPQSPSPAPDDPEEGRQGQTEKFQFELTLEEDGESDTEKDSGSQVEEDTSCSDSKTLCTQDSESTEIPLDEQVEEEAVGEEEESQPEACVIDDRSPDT
Sequence of CYP2C9 (P11712 whole entry): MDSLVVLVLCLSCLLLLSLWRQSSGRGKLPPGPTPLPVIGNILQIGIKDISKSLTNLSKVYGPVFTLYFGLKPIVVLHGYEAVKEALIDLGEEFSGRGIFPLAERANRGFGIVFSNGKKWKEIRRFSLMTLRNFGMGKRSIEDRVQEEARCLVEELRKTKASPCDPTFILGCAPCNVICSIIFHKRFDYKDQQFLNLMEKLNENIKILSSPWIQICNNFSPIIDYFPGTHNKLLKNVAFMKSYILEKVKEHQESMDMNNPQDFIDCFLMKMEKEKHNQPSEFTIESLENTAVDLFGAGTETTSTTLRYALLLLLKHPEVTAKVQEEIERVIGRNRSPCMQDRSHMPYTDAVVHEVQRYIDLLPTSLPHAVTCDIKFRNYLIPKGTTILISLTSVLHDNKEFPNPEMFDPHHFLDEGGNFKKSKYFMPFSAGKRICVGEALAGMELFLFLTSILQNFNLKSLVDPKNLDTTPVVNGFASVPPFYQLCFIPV
Sequence of CYP2D6 (P10635 whole entry): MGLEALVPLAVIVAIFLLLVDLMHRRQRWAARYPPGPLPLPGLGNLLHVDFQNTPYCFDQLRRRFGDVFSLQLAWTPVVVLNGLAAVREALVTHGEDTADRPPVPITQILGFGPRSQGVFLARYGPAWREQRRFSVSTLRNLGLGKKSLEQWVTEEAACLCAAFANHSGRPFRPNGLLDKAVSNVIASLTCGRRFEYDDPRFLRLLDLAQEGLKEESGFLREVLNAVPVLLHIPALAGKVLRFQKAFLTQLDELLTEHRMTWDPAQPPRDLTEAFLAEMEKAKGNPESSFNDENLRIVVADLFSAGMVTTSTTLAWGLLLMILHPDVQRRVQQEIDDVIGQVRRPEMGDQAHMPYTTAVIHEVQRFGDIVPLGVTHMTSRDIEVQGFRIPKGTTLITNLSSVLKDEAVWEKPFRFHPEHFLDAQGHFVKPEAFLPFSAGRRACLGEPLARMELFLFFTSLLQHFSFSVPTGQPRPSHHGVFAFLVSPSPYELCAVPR

As for `C[C@@H]1COCCN1c1nc(N2CCOC[C@@H]2C)cc2sc(-c3cc[nH]n3)nc12`, the IC50 in series [1] was 96 nM; in [2] it was 960 nM.

For `C[C@@H]1COCCN1c1nc(N2CCOC[C@@H]2C)nc2[nH]c(-c3cc[nH]n3)nc12`, the IC50 in series [1] came out at 16 nM; in [2], 4900 nM.

With `C[C@@H]1COCCN1c1nc(N2CCOC[C@@H]2C)cc2[nH]c(-c3cc[nH]n3)nc12`, the results for the IC50 in [1] and in [2] were 46 nM and 11000 nM, respectively.

Regarding `C[C@@H]1COCCN1c1cc(N2CCOC[C@@H]2C)nc2[nH]c(-c3cc[nH]n3)cc12`, the 50% inhibitory concentration (IC50) worked out at 34 nM in series [1] and 16000 nM in series [2].

Take `C[C@@H]1COCCN1c1cc(N2CCOC[C@@H]2C)nc2[nH]c(-c3nccs3)nc12`: the solubility in series [3] was 250 µg/mL (≈ 624 µM). Also, the efflux ratio in series [4] worked out at 0.66. For the same molecule, the Kobs in series [5] amounted to 0.021 min⁻¹. Also, the results for the IC50 in [2] and in [7] were 21000 nM and 24000 nM, respectively. In addition, the Papp B→A in [6] was found to be 8.24 ×10⁻⁶ cm/s. Further, the Papp A→B in series [8] came to 12.7 ×10⁻⁶ cm/s.

As for `C[C@@H]1COCCN1c1cc(N2CCOC[C@@H]2C)nc2[nH]c(-c3cc[nH]n3)nc12`, the solubility in series [3] amounted to 160 µg/mL (≈ 417 µM). Further, in series [4], the efflux ratio came out at 2.52. For the same molecule, the 50% inhibitory concentration (IC50) turned out to be 7.7 nM in [1], 18000 nM in [2] and 1110 nM in series [7]. For the same molecule, in [5], the Kobs was found to be 0.004 min⁻¹. Besides, the Papp B→A in series [6] is 40 ×10⁻⁶ cm/s. Besides, the apparent permeability from apical to basolateral (Papp A→B) in series [8] stood at 15.9 ×10⁻⁶ cm/s.

As to `C[C@@H]1COCCN1c1cc(N2C3CCC2COC3)nc2[nH]c(-c3ccccn3)nc12`, the solubility in series [3] was less than 2 µg/mL. Further, the efflux ratio in series [4] came to 0.84. Further, the IC50 in series [1] was 6.6 nM; in [2] it was 9200 nM; in series [7], 2250 nM. Also, in [5], the Kobs came out at 0.036 min⁻¹. The Papp B→A in series [6] stood at 8.04 ×10⁻⁶ cm/s. In addition, in [8], the Papp A→B came out at 9.57 ×10⁻⁶ cm/s.

On to `C[C@@H]1COCCN1c1nc(N2CCOC[C@@H]2C)nc2sc(-c3cc[nH]n3)nc12`, for which the Activity entry in [9] is “Toxic”; in series [11], 0.15%; in [13], 0.3%; in series [15], “Toxic”; in series [18], “Toxic”; in [20] it was 0.15%. The Activity was 253 in series [21]; 1.3% in series [22]; “Toxic” in series [23]; “Toxic” in series [24]; “Toxic” in [25]. The IC50 in series [10] was 33200 nM; in series [1], 5 nM; in series [12], greater than 50000 nM; in series [26], greater than 50000 nM. For the same molecule, the Kobs in series [5] was 0.006 min⁻¹. Also, the microsomal CLint at 1 µM in series [14] came to 26 µL/min/mg; in [16], 82 µL/min/mg; in series [17], 92 µL/min/mg; in series [19] it was 22 µL/min/mg. Besides, the Papp B→A in [6] worked out at 25.4 ×10⁻⁶ cm/s. Also, in [8], the Papp A→B stood at 27.4 ×10⁻⁶ cm/s.

`C[C@@H]1COCCN1c1cc(N2CCOC[C@@H]2C)nc2[nH]c(-c3cc(O)ccc3F)nc12` came in with a solubility in series [3] of 53 µg/mL (≈ 124 µM). For the same molecule, in [4], the efflux ratio came to 0.61. Also, the Kobs in series [5] was 0.004 min⁻¹. In addition, the IC50 in [2] worked out at 6000 nM; in series [7], 7140 nM. For the same molecule, the Papp B→A in [6] came to 15.5 ×10⁻⁶ cm/s. Moreover, the Papp A→B in series [8] came out at 25.6 ×10⁻⁶ cm/s.

Take `C[C@@H]1COCCN1c1cc(N2CCOC[C@@H]2C)cc2sc(-c3cc[nH]n3)nc12`: the IC50 in series [1] is 15 nM; in series [2] it was 42 nM.

As to `CO[C@H]1C[C@@H]2CC[C@@H](C)[C@@](O)(O2)C(=O)C(=O)N2CCCC[C@H]2C(=O)O[C@H]([C@H](C)C[C@@H]2CC[C@@H](OCCO)[C@H](OC)C2)CC(=O)[C@H](C)/C=C(\C)[C@@H](O)[C@@H](OC)C(=O)[C@H](C)C[C@H](C)/C=C/C=C/C=C/1C` [EVEROLIMUS], the IC50 in [27] was found to be 0.005 nM.
